Experimental data as given in patent US9238656B2, “Imidazo[4,5-b]pyridine derivatives as ALK and JAK modulators for the treatment of proliferative disorders” (priority 2012, dated 2016).

What was measured:
[1] = 30 mg BID, kidney allograft recipients; cited from earlier work
[2] = target: baculovirus-expressed ALK (Homo sapiens, UniProt Q9UM73); test: ALK kinase inhibition, TRF/ELISA; format: biochemical; conditions: read-out: ALK Potency
Method in brief: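 Plates were coated with GST-PLC-γ substrate (10 μg/mL) and the reaction was started with 30 ng/mL ALK, running 15 min at 37° C. Phosphotyrosine was detected by time-resolved fluorescence with Eu-labeled PT66 antibody. IC50s came from variable-slope sigmoidal fits of percent inhibition versus log concentration.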

[3] = target: baculovirus-expressed JAK2 kinase (Homo sapiens, UniProt O60674); test: biochemical; conditions: 0.2 μM ATP; read-out: JAK2 Potency
Method in brief: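 Time-resolved fluorescence kinase assay using 15 ng/mL baculovirus-expressed JAK2 on Neutravidin-captured biotinylated 15-mer peptide substrate, reaction 20 min at room temperature. IC50 from percent inhibition versus log concentration, sigmoidal variable-slope fit.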

Chain of baculovirus-expressed JAK2 kinase (O60674 whole entry): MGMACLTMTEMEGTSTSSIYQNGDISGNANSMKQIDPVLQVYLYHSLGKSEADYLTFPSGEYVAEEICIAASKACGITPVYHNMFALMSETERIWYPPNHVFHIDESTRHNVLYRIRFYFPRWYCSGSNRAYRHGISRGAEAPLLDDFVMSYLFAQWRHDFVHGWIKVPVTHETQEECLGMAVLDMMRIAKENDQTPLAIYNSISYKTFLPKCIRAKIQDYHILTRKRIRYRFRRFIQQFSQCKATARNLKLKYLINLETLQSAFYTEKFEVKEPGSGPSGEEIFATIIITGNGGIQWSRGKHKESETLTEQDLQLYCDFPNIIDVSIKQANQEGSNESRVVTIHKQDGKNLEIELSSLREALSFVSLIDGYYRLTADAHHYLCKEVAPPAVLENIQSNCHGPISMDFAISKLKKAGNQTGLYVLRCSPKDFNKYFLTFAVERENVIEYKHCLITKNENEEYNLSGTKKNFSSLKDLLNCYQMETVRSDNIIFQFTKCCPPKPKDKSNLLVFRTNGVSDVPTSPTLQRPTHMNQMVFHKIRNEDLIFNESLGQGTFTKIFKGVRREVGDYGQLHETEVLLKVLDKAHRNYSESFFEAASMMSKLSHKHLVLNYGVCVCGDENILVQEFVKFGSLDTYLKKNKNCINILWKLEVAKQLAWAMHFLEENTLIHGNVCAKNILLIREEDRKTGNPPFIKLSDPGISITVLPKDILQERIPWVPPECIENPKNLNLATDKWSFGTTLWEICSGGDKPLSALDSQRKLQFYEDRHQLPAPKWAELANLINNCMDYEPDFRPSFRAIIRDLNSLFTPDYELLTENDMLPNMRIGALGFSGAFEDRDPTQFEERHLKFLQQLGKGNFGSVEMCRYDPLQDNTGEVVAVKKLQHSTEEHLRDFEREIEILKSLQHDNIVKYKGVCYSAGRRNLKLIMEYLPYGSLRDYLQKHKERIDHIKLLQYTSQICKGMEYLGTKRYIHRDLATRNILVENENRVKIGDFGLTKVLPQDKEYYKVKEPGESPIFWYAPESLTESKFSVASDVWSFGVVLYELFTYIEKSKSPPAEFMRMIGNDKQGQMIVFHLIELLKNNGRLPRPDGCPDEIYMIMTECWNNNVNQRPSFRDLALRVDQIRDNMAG
Chain of baculovirus-expressed ALK (Q9UM73 19-1620): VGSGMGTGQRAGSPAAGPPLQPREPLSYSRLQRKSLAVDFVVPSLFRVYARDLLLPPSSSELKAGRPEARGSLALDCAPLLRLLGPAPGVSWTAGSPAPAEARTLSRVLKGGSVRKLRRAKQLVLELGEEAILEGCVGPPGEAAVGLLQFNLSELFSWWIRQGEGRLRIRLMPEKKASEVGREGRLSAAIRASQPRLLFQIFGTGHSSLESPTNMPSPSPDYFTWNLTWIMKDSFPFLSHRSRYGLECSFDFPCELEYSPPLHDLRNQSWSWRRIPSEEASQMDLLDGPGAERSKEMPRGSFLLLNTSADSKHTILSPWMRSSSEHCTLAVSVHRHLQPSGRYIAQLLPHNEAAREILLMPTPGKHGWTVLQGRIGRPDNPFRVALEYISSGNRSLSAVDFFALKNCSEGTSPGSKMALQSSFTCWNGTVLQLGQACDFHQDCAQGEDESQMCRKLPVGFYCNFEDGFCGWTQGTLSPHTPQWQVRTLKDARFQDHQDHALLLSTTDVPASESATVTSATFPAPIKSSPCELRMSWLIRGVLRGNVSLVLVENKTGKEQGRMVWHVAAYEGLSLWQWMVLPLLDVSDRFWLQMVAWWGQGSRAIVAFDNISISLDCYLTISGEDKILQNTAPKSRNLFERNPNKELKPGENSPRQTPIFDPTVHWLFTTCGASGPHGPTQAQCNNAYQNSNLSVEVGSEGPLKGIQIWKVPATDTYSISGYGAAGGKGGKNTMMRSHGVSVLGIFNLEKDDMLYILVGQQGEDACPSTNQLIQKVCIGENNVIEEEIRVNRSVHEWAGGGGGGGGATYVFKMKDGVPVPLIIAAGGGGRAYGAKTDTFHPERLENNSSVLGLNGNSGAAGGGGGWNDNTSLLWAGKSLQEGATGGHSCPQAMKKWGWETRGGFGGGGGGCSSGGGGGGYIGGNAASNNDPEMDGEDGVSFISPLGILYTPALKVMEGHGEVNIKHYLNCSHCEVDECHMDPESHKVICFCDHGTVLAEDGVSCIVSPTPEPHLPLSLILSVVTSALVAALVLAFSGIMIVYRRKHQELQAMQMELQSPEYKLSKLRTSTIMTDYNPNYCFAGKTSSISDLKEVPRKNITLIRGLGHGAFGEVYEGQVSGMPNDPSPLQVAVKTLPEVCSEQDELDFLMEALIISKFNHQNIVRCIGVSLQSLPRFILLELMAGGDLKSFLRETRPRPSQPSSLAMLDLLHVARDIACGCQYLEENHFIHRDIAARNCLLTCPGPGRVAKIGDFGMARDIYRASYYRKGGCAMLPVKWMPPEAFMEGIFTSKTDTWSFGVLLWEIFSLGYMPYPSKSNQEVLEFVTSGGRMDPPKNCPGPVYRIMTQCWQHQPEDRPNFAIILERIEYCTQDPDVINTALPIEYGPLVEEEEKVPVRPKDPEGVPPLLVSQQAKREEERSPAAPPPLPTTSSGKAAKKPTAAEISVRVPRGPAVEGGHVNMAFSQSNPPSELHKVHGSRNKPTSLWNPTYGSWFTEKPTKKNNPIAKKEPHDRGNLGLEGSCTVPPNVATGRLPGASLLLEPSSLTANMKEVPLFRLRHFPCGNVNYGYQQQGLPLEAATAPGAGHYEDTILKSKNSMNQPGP

SMILES | subjects developed polyoma-associated nephropathy [1] | IC50 [2] | IC50 [3] | melting point
C[C@@H]1CCN(C(=O)CC#N)C[C@@H]1N(C)c1ncnc2[nH]ccc12 [CP-690,550] | 20% | – | – | –
CC(C)(C)OC(=O)N1CCCC(c2nc3c(N[C@H]4[C@@H](C(N)=O)[C@@H]5C=C[C@H]4C5)c(Br)cnc3[nH]2)C1 (stereo partly drawn) [Compound LXXXII, 3-[6-Bromo-7-((1R,2R,3S,4S)-3-carbamoyl-bicyclo[2.2.1]hept-5-en-2-ylamino)-3H-imidazo[4,5-b]pyridin-2-yl]-piperidine-1-carboxylic acid tert-butyl] | – | 100 to 1000 nM | 100 to 1000 nM | 172 to 177 °C
NC(=O)[C@@H]1[C@H](Nc2c(Br)cnc3[nH]c(-c4cccc(N5CCOCC5)c4)nc23)[C@H]2C=C[C@@H]1C2 [Compound LXXXIII, (1S,2S,3R,4R)-3-[6-Bromo-2-(3-morpholin-4-yl-phenyl)-3H-imidazo[4,5-b]pyridin-7-ylamino]-bicyclo[2.2.1]hept-5-ene-2-carboxylic acid amide] | – | < 100 nM | < 100 nM | 232 to 234 °C
COc1cc(N(C)C)ccc1-c1nc2c(N[C@H]3[C@@H](C(N)=O)[C@@H]4C=C[C@H]3C4)c(Br)cnc2[nH]1 [Compound LXXXIV, (1S,2S,3R,4R)-3-[6-Bromo-2-(4-dimethylamino-2-methoxy-phenyl)-3H-imidazo[4,5-b]pyridin-7-ylamino]-bicyclo[2.2.1]hept-5-ene-2-carboxylic acid amide] | – | < 100 nM | < 100 nM | 218 to 220 °C
NC(=O)[C@@H]1[C@H](Nc2ccnc3[nH]c(-c4ccc(N5CCOCC5)cc4)nc23)[C@H]2C=C[C@@H]1C2 [Compound LXXXIX, (1S,2S,3R,4R)-3-[2-(4-Morpholin-4-yl-phenyl)-3H-imidazo[4,5-b]pyridin-7-ylamino]-bicyclo[2.2.1]hept-5-ene-2-carboxylic acid amide] | – | > 10000 nM | 1000 to 10000 nM | 240 to 244 °C
Cn1cc(-c2nc3c(N[C@H]4[C@@H](C(N)=O)[C@@H]5C=C[C@H]4C5)c(Br)cnc3[nH]2)cn1 [Compound LXXXV, (1S,2S,3R,4R)-3-[6-Bromo-2-(1-methyl-1H-pyrazol-4-yl)-3H-imidazo[4,5-b]pyridin-7-ylamino]-bicyclo[2.2.1]hept-5-ene-2-carboxylic acid amide] | – | 100 to 1000 nM | < 100 nM | 255 to 258 °C
CN(C)c1ccc(-c2nc3c(N[C@H]4[C@@H](C(N)=O)[C@@H]5C=C[C@H]4C5)ccnc3[nH]2)cc1 [Compound LXXXVI, (1S,2S,3R,4R)-3-[2-(4-Dimethylamino-phenyl)-3H-imidazo[4,5-b]pyridin-7-ylamino]-bicyclo[2.2.1]hept-5-ene-2-carboxylic acid amide] | – | > 10000 nM | 1000 to 10000 nM | 245 to 251 °C
CN(C)c1cccc(-c2nc3c(N[C@H]4[C@@H](C(N)=O)[C@@H]5C=C[C@H]4C5)ccnc3[nH]2)c1 [Compound LXXXVII, (1S,2S,3R,4R)-3-[2-(3-Dimethylamino-phenyl)-3H-imidazo[4,5-b]pyridin-7-ylamino]-bicyclo[2.2.1]hept-5-ene-2-carboxylic acid amide] | – | > 10000 nM | 1000 to 10000 nM | 200 to 204 °C
CN1CCN(c2ccc(-c3nc4c(N[C@H]5[C@@H](C(N)=O)[C@@H]6C=C[C@H]5C6)ccnc4[nH]3)cc2)CC1 [Compound LXXXVIII, (1S,2S,3R,4R)-3-{2-[4-(4-Methyl-piperazin-1-yl)-phenyl]-3H-imidazo[4,5-b]pyridin-7-ylamino}-bicyclo[2.2.1]hept-5-ene-2-carboxylic acid amide] | – | 1000 to 10000 nM | 1000 to 10000 nM | 220 to 222 °C
NC(=O)[C@@H]1[C@H](Nc2ccnc3[nH]c(-c4ccc(CN5CCOCC5)cc4)nc23)[C@H]2C=C[C@@H]1C2 [Compound XC, (1S,2S,3R,4R)-3-[2-(4-Morpholin-4-ylmethyl-phenyl)-3H-imidazo[4,5-b]pyridin-7-ylamino]-bicyclo[2.2.1]hept-5-ene-2-carboxylic acid amide] | – | > 10000 nM | 1000 to 10000 nM | 240 to 244 °C
NC(=O)[C@@H]1[C@H](Nc2ccnc3[nH]c(-c4cccc(CN5CCOCC5)c4)nc23)[C@H]2C=C[C@@H]1C2 [Compound XCI, (1S,2S,3R,4R)-3-[2-(3-Morpholin-4-ylmethyl-phenyl)-3H-imidazo[4,5-b]pyridin-7-ylamino]-bicyclo[2.2.1]hept-5-ene-2-carboxylic acid amide] | – | > 10000 nM | 1000 to 10000 nM | 240 to 244 °C
COc1cc(N(C)C)ccc1-c1nc2c(N[C@H]3[C@@H](C(N)=O)[C@@H]4C=C[C@H]3C4)ccnc2[nH]1 [Compound XCIII, (1S,2S,3R,4R)-3-[2-(4-Dimethylamino-2-methoxy-phenyl)-3H-imidazo[4,5-b]pyridin-7-ylamino]-bicyclo[2.2.1]hept-5-ene-2-carboxylic acid amide] | – | > 10000 nM | > 10000 nM | 185 to 190 °C
COc1cc(N2CCC(N3CCN(C)CC3)CC2)ccc1-c1nc2c(N[C@H]3[C@@H](C(N)=O)[C@@H]4C=C[C@H]3C4)ccnc2[nH]1 [Compound XCIX, (1S,2S,3R,4R)-3-(2-{2-Methoxy-4-[4-(4-methyl-piperazin-1-yl)-piperidin-1-yl]-phenyl}-3H-imidazo[4,5-b]pyridin-7-ylamino)-bicyclo[2.2.1]hept-5-ene-2-carboxylic acid amide] | – | 100 to 1000 nM | > 10000 nM | 185 to 195 °C
COc1cc(N2CCN(C)CC2)ccc1-c1nc2c(N[C@H]3[C@@H](C(N)=O)[C@@H]4C=C[C@H]3C4)ccnc2[nH]1 [Compound XCV, (1S,2S,3R,4R)-3-{2-[2-Methoxy-4-(4-methyl-piperazin-1-yl)-phenyl]-3H-imidazo[4,5-b]pyridin-7-ylamino}-bicyclo[2.2.1]hept-5-ene-2-carboxylic acid amide] | – | 1000 to 10000 nM | 1000 to 10000 nM | 185 to 195 °C
COc1cc(N2CCN(C)CC2)ccc1-c1nc2c(N[C@H]3[C@@H](C(N)=O)[C@@H]4C=C[C@H]3C4)c(Br)cnc2[nH]1 [Compound XCVI, (1S,2S,3R,4R)-3-{6-Bromo-2-[2-methoxy-4-(4-methyl-piperazin-1-yl)-phenyl]-3H-imidazo[4,5-b]pyridin-7-ylamino}-bicyclo[2.2.1]hept-5-ene-2-carboxylic acid amide] | – | < 100 nM | < 100 nM | 185 to 195 °C
COc1cc(N2CCC(N3CCOCC3)CC2)ccc1-c1nc2c(N[C@H]3[C@@H](C(N)=O)[C@@H]4C=C[C@H]3C4)c(Br)cnc2[nH]1 [Compound XCVII, (1S,2S,3R,4R)-3-{6-Bromo-2-[2-methoxy-4-(4-morpholin-4-yl-piperidin-1-yl)-phenyl]-3H-imidazo[4,5-b]pyridin-7-ylamino}-bicyclo[2.2.1]hept-5-ene-2-carboxylic acid amide] | – | < 100 nM | < 100 nM | 185 to 195 °C
COc1cc(N2CCC(N3CCN(C)CC3)CC2)ccc1-c1nc2c(N[C@H]3[C@@H](C(N)=O)[C@@H]4C=C[C@H]3C4)c(Br)cnc2[nH]1 [Compound XCVIII, (1S,2S,3R,4R)-3-(6-Bromo-2-{2-methoxy-4-[4-(4-methyl-piperazin-1-yl)-piperidin-1-yl]-phenyl}-3H-imidazo[4,5-b]pyridin-7-ylamino)-bicyclo[2.2.1]hept-5-ene-2-carboxylic acid amide] | – | < 100 nM | < 100 nM | 185 to 195 °C
COc1cc(CN2CCN(C[C@H](C)O)CC2)ccc1-c1nc2c(N[C@H]3[C@@H](C(N)=O)[C@@H]4C=C[C@H]3C4)c(Cl)cnc2[nH]1 [Compound XLIII, (1S,2S,3R,4R)-3-(6-Chloro-2-{4-[4-((S)-2-hydroxypropyl)-piperazin-1-ylmethyl]-2-methoxyphenyl}-3H-imidazo[4,5-b]pyridine-7-ylamino)-bicyclo[2.2.1]hept-5-ene-2-carboxylic acid amide] | – | < 100 nM | < 100 nM | 142 to 146 °C
COc1cc(CN2CCN(C[C@@H](C)O)CC2)ccc1-c1nc2c(N[C@H]3[C@@H](C(N)=O)[C@@H]4C=C[C@H]3C4)c(Cl)cnc2[nH]1 [Compound XLIV, (1S,2S,3R,4R)-3-(6-Chloro-2-{4-[4-((R)-2-hydroxypropyl)-piperazin-1-ylmethyl]-2-methoxyphenyl}-3H-imidazo[4,5-b]pyridine-7-ylamino)-bicyclo[2.2.1]hept-5-ene-2-carboxylic acid amide] | – | < 100 nM | < 100 nM | 157 to 159 °C
COc1ccc(-c2nc3c(N[C@H]4[C@@H](C(N)=O)[C@@H]5C=C[C@H]4C5)c(Cl)cnc3[nH]2)c(C2CCNCC2)c1 [Compound XXX, (1S,2S,3R,4R)-3-[6-Chloro-2-(4-methoxy-2-piperidin-4-yl-phenyl)-3H-imidazo[4,5-b]pyridine-7-ylamino]-bicyclo[2.2.1]hept-5-ene-2-carboxylic acid amide] | – | 1000 to 10000 nM | 100 to 1000 nM | 199 to 200 °C
COc1ccc(-c2nc3c(N[C@H]4[C@@H](C(N)=O)[C@@H]5C=C[C@H]4C5)c(Cl)cnc3[nH]2)c(C2CCN(C[C@@H](C)O)CC2)c1 [Compound XXXI] | – | 1000 to 10000 nM | 100 to 1000 nM | 186 to 187 °C
Cn1cc(-c2nc3c(N[C@H]4[C@@H](C(N)=O)[C@@H]5C=C[C@H]4C5)ccnc3[nH]2)cn1 [XCIV, (1S,2S,3R,4R)-3-[2-(1-Methyl-1H-pyrazol-4-yl)-3H-imidazo[4,5-b]pyridin-7-ylamino]-bicyclo[2.2.1]hept-5-ene-2-carboxylic acid amide] | – | > 10000 nM | 1000 to 10000 nM | 236 to 238 °C
